Results on 18 compounds are retold here after patent publication US20220175754A1, “P97 INHIBITORS FOR TREATING CANCER AND NEURODEGENERATIVE DISORDERS” (Lundquist Institute for Biomedical Innovation at …, priority 2018, published 2022).

SMILES strings stand for the structures. pIC50: −log10 of the molar value. Where two headings read alike, the source gives them in different places.

In one assay the target is P97 (Homo sapiens, UniProt P55072). Put plainly: P97 Biomolgreen ATPase assay, 200 μM ATP. It is filed as biochemical. The source says: The following Table IV provides relevant results. The compound number in Table IV correlates to the numbered compounds in Table III.
Sequence of P97 (P55072 whole entry): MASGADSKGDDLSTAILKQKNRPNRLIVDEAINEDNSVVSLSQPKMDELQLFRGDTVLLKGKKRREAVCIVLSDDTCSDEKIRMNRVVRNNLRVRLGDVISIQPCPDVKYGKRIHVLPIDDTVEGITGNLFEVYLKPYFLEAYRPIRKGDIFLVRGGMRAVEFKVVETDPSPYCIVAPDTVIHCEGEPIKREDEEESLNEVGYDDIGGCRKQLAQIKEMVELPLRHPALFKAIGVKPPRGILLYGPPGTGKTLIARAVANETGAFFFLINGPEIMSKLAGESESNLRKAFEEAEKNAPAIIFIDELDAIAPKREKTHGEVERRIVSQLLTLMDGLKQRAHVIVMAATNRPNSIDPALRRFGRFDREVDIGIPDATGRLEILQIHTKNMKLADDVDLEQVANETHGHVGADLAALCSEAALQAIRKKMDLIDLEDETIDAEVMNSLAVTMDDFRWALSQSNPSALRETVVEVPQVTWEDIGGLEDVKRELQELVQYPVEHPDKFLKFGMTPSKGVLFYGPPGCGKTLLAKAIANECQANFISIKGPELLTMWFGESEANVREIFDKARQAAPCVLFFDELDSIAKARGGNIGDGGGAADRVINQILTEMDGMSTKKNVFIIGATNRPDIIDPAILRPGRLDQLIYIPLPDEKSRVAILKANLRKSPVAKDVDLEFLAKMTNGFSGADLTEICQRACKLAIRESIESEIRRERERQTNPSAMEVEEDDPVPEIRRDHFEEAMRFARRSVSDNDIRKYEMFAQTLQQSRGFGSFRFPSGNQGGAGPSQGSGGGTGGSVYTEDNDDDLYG
The test system of another assay is MDA-MB-231. Briefly: Anti-proliferative activity, MDA-MB-231. It is filed as cell-based. As to conditions: Homo sapiens, Breast, read-out: Anti-proliferative activity (μM) of NMS-873.
For another assay, the system named is MDA-MB-468. Put plainly: Anti-proliferative activity, MDA-MB-468. The assay is classed as cell-based. As to conditions: Homo sapiens, Breast, read-out: Anti-proliferative activity (μM) of NMS-873.
The test system of a further assay is MCF-7. Put plainly: Anti-proliferative activity, MCF-7. It is filed as cell-based. As to conditions: Homo sapiens, MCF7, Breast, read-out: Anti-proliferative activity (μM) of NMS-873.
For a further assay, the system named is HCT15. Briefly: Anti-proliferative activity, HCT15. The assay is classed as cell-based. As to conditions: Homo sapiens, HCT-15, Colon, read-out: Anti-proliferative activity (μM) of NMS-873.
For another assay, the system named is HCT116. Put plainly: Anti-proliferative activity, HCT116. The assay is classed as cell-based. As to conditions: Homo sapiens, HCT-116, Colon, read-out: Anti-proliferative activity (μM) of NMS-873.
The subject of a further assay is SW620. Briefly: Anti-proliferative activity, SW620. As to conditions: Homo sapiens, SW-620, Colon, read-out: Anti-proliferative activity (μM) of NMS-873. The assay is classed as cell-based.
The next assay has as its system Molt4. Briefly: Anti-proliferative activity, Molt4. As to conditions: Homo sapiens, MOLT-4, blood cancer, read-out: Anti-proliferative activity (μM) of NMS-873. The assay is classed as cell-based.
The subject of the next assay is CCRF-CEM. Briefly: Anti-proliferative activity, CCRF-CEM. It is filed as cell-based. As to conditions: Homo sapiens, blood cancer, read-out: Anti-proliferative activity (μM) of NMS-873.
A further assay has as its system RPMI8226. Briefly: Anti-proliferative activity, RPMI8226. It is filed as cell-based. As to conditions: Homo sapiens, RPMI-8226, Multiple Myeloma, read-out: Anti-proliferative activity (μM) of NMS-873.
Another assay relates to A375 (BRAFV600E). Briefly: Anti-proliferative activity, A375. It is filed as cell-based. As to conditions: Homo sapiens, A-375, skin cancer, read-out: Anti-proliferative activity (μM) of NMS-873.
The subject of another assay is SKMel2 (NRASQ61R). Put plainly: Anti-proliferative activity, SKMel2. It is filed as cell-based. As to conditions: Homo sapiens, SK-MEL-2, skin cancer, read-out: Anti-proliferative activity (μM) of NMS-873.
Another assay concerns SKMel5 (BRAFV600E). Briefly: Anti-proliferative activity, SKMel5. As to conditions: Homo sapiens, SK-MEL-5, skin cancer, read-out: Anti-proliferative activity (μM) of NMS-873. The assay is classed as cell-based.
A further assay relates to LoxIMVI (BRAFV600E). Put plainly: Anti-proliferative activity, LoxIMVI. It is filed as cell-based. As to conditions: Homo sapiens, LOX IMVI, skin cancer, read-out: Anti-proliferative activity (μM) of NMS-873.
A further assay deals with WM3918 (BRAF/NRAS WT). Put plainly: Anti-proliferative activity, WM3918. As to conditions: skin cancer, read-out: Anti-proliferative activity (μM) of NMS-873. It is filed as cell-based.
The test system of another assay is PANC-1. Put plainly: Anti-proliferative activity, PANC-1. As to conditions: Homo sapiens, Pancreatic cancers, read-out: Anti-proliferative activity (μM) of NMS-873. It is filed as cell-based.
Another assay deals with BxPC-3. Put plainly: Anti-proliferative activity, BxPC-3. It is filed as cell-based. As to conditions: Homo sapiens, Pancreatic cancers, read-out: Anti-proliferative activity (μM) of NMS-873.
Another assay relates to A549. Briefly: Anti-proliferative activity, A549. It is filed as cell-based. As to conditions: Homo sapiens, Lung Cancer, read-out: Anti-proliferative activity (μM) of NMS-873.
The mark [1] stands for this setting: read-out: P97 Biomolgreen, IC50.

Protocol for A549: (§1) Cells were seeded on a 384-well solid white plate (5,000 cells/well). Cells were transfected with luciferase siRNA or p97 siRNA (10 nM) for 48 h or treated with compounds for the indicated amount of time. Caspase-3/7 Glo, caspase-6 Glo, caspase-8 Glo, or caspase-9 Glo (Promega) was added into each well and mixed by shaking at 500 rpm for 1 min. Luminescence signal was determined after incubation at room temperature for 1 h. Cellular viability was determined with Cell-Titer-Glo reagent (Promega). […] IC50 values were calculated from fitting the percentage of luminescence signal normalized to DMSO treated cells).
Protocol for BxPC-3: as §1
Protocol for HCT116: (§2) Cells were seeded on a 384-well solid white plate (5,000 cells/well). Cells were transfected with luciferase siRNA or p97 siRNA (10 nM) for 48 h or treated with compounds for the indicated amount of time. […] Cellular viability was determined with Cell-Titer-Glo reagent (Promega). […] IC50 values were calculated from fitting the percentage of luminescence signal normalized to DMSO treated cells).
Protocol for HCT15: as §2
Protocol for LoxIMVI (BRAFV600E): as §1
Protocol for MCF-7: as §2
Protocol for MDA-MB-231: as §2
Protocol for MDA-MB-468: as §2
Protocol for PANC-1: as §1
Protocol for SKMel2 (NRASQ61R): as §1
Protocol for SKMel5 (BRAFV600E): as §1
Protocol for WM3918 (BRAF/NRAS WT): as §1

As to `COC(C)NCC#Cc1ccc(OCc2nnc(SC3CCCC3)n2-c2cccnc2)cc1C` (stereo not shown) [Compound 12], on P97, the pIC50 is 7.54.
Still for that read-out and setting: the same measure for `[2H]C1([2H])C([2H])([2H])C([2H])([2H])C([2H])(Sc2nnc(COc3ccc(C#CC(C)OC(=O)NCCN4CCN(C(C)C)CC4)c(C)c3)n2-c2cccnc2)C1([2H])[2H]` (stereo not shown) [Compound 42]: 6.89.
On the same count and under the same terms, as for `Cc1cc(OCc2nnc(SC3CCCC3)n2-c2cccnc2)ccc1C#CCNC(=O)OC(C)(C)C` [Compound 49], the figure is 6.59.
`C#Cc1ccc(OCc2nnc(CC3CC3)n2-c2cccnc2)cc1C` [Compound 55]: at P97 (setting [1]), the negative-log IC50 (pIC50) was 5.28.
`N#Cc1ccc(C#CCOCc2nnc(SC3CCCC3)n2-c2cccnc2)cc1` [Compound 56] had a pIC50 at P97 of less than 5.17.
`Cc1cc(OCc2nnc(SC3C=CCCC3)n2-c2cccnc2)ccc1C#CCOC1CCCCO1` (stereo not shown) [Compound 57]: the pIC50 at P97 (setting [1]) is 6.96.
In turn, `Cc1cc(OCc2nnc(SC3C=CCCC3)n2-c2cccnc2)ccc1C#CCOC(=O)NCCN1CCN(C(C)C)CC1` (stereo not shown) [Compound 71] gave a pIC50 against P97 of 7.59.
Compound `Cc1cc(OCc2nnc(SC3C=CCCC3)n2-c2cccnc2)ccc1C#CCOC(=O)NC1CCN(C)CC1` (stereo not shown) [Compound 75] showed a negative-log IC50 (pIC50) at P97 of 7.60.
Take `OCC#Cc1ccc(OCc2nnc(SC3C=CCCC3)n2-c2cccnc2)cc1` (stereo not shown) [Compound 91]: on P97 (setting [1]), the pIC50 was 7.49.
On P97, `[2H]C1([2H])C([2H])([2H])C([2H])([2H])C([2H])(Sc2nnc(COc3ccc(C#CCNC4CCN(C)CC4)c(C)c3)n2-c2cccnc2)C1([2H])[2H]` [Compound 96] gave a negative-log IC50 (pIC50) of 7.17.
In turn, `Cc1cc(OCc2nnc(SC3C=CCCC3)n2-c2cccnc2)ccc1C#CCOC(=O)N1CCN(C)CC1` (stereo not shown) [Compound 108] gave a negative-log IC50 (pIC50) against P97 of 7.82.
On P97, `Cc1cc(OCc2nnc(SC3CCCC3)n2-c2cccnc2)ccc1C#CCOC(=O)NCCNC(=O)CC1C2CC3CC(C2)CC1C3` (stereo not shown) [Compound 110] gave a pIC50 of 7.22.
The same measure, in the same setting: the same measure for `Cc1cc(OCc2nnc(SC3CCCC3)n2-c2cccnc2)ccc1C#CCOC(=O)NCCOCCNC(=O)CC1C2CC3CC(C2)CC1C3` (stereo not shown) [Compound 111]: 7.52; for `[2H]C1([2H])C([2H])([2H])C([2H])([2H])C([2H])(Sc2nnc(COc3ccc(C#CCO)c(C)c3)n2-c2cccnc2)C1([2H])[2H]` [Compound 117]: 6.00.
For the compound `CN1CCC(NC(=O)OCC#Cc2ccc(OCc3nnc(SC4C=CCCC4)n3-c3cccnc3)cc2C#N)CC1` (stereo not shown) [Compound 121], the pIC50 at P97 (setting [1]) is 7.52.
Turning to `CCC(=O)NCC#Cc1ccc(OCc2nnc(SCC3CO3)n2-c2cccnc2)cc1C` (stereo not shown) [Compound 129], on P97, the “P97 Biomolgreen; 200 μM ATP; IC50 (μM)” value was “Not active”.
The same measure, in the same setting: the same measure for `CCC(=O)NCC#Cc1ccc(OCc2nnc(SC[C@@]3(C)CO3)n2-c2cccnc2)cc1C` [Compound 130]: “Not active”.
For `Cc1cc(OCc2nnc(SC3CCCC3)n2-c2cccnc2)ccc1-c1ccc(S(C)(=O)=O)cc1` [NMS-873], the IC50 with MDA-MB-231 is 2.95 µM; in the assay on MDA-MB-468, 1.36 µM; in the assay on MCF-7, 3.07 µM; with HCT15, 2.1 µM; in the assay with HCT116 it was 1.2 µM; in the assay with SW620 it was 2.6 µM. For the same compound, the IC50 was 0.92 µM with Molt4; 0.1 µM in the assay on CCRF-CEM; 0.08 µM in the assay with RPMI8226; 2.27 µM in the assay on A375 (BRAFV600E); 3.04 µM in the assay with SKMel2 (NRASQ61R); 1.95 µM in the assay on SKMel5 (BRAFV600E). Also, the IC50 came out at 0.65 µM with LoxIMVI (BRAFV600E); 2.35 µM in the assay with WM3918 (BRAF/NRAS WT); 5 µM with PANC-1; 2.5 µM in the assay on BxPC-3; 2.2 µM in the assay on A549.
